In test [1] the test system is PDE activity in asthmatic HASM cells. Kind of test: cAMP PDE activity assay in lysates of treated or siRNA-transfected asthmatic HASM cells. The class given is cell-based, human. To be noted: for effect on heightened basal PDE activity: × 2 hr. The method, then:
Primary cultures of HASM cells derived from bronchial smooth muscle freshly isolated post-mortem from normal non-asthmatic (n=3) and asthmatic (n=4) donor lungs were purchased at passage 2-3 from Lonza Walkersville, Inc. Other than data regarding age, race, and gender of the donors provided in Table 1, limited information was available with respect to clinical severity of asthma, treatment history, or cause of death, with exception to asthma donor #1. All the experiments were conducted at passage 5-6, after growing the cells in Lonza's serum-containing SmBM medium supplemented with the BulletKit medium that contains insulin, human FGF, gentamycin/amphotericin B. The cells were maintained throughout in a humidified incubator containing 5% CO2 in air at 37° C. and, after attaining ˜90% confluence, cells were growth arrested for 24 hr in serum-free Ham's F12 medium. Thereafter, the cells were examined for constitutive and induced changes in PDE activity, levels of free Gβ, c-Src and ERK1/2 phosphorylation, and PDE4D protein expression, all in the absence and presence of different pretreatment conditions, as described.
Levels of total cAMP PDE activity were determined in normal and asthmatic HASM cells at baseline and at different times ranging from 0.25-24 hr following administration of a maximally effective concentration of either: 1) a cell permeable anti-Gβγ blocking peptide (1 μM; AnaSpec; Premont, Calif.), comprised of a membrane permeable sequence (MPS; 15 amino acids) conjugated to the Gβγ-sequestering C-terminal domain (28 amino acids) of phosducin-like protein [28]; 2) the inert MPS peptide alone (1 μM) serving as a negative-control; or 3) 1 μM of gallein [29], a recently described small molecule inhibitor of Gβγ signaling (Acros Organics). PDE activity was also assayed in normal and asthmatic HASM cells following dose-dependent administration of anti-Gβγ blocking peptide (0.01-10 μM), and following treatment with various small molecule inhibitors, as described. The PDE activity assay was performed in the HASM cell lysates using a colorimetric, non-radioactive enzymatic assay (Enzo Life Sciences; Plymouth Meeting, Pa.) as per the manufacturer's protocol, with some modification of our previously described approach. Specifically, to maximize the sensitivity and yield of the measurement enzyme activity, we used materials including a cell lysis buffer completely free of phosphate, composed of 50 mM Tris, pH 7.5, 0.1 mM EDTA, 0.1 mM EGTA, 1 mM DTT and 0.2% NP-40. The measured levels of PDE activity were standardized to protein content in the cell extracts. Finally, PDE activity was also assayed in normal and asthmatic HASM cells following transfection with siRNA preparations targeted at suppressing specific signaling molecules, as described below.
Targeted protein suppression using siRNA preparations was examined in normal and asthmatic HASM cells that were initially seeded into 6-well plates and, at ˜40% confluency, the medium was replaced with the reduced serum-containing medium, Opti-MEM (Invitrogen). Cells were then transfected twice during a 24-hr interval with pools of siRNA preparations, each pool comprised of three siRNA duplexes targeted against either human Rap1GAP (Ambion; ID: s11785, s11786, s11787), RGS14, (Ambion; ID: 18059, 18147, 135857), or the PKAα catalytic subunit (Santa Cruz Biotechnology; Pool ID: sc-36240), as well as a non-targeted (scrambled) siRNA duplex serving as a negative control. As previously described [16.17.31], the transfections were carried out using Oligofectamine (Invitrogen) as the transfection agent, and the pools of siRNAs were applied to each well at a final concentration of 100 nM for each siRNA preparation.

Test [2] relates to PDE activity detected in cultured asthmatic HASM cells. To be noted: recent report [27]; cited from earlier work.
Another test has as its system asthmatic individuals. The settings on record: cited from earlier work.
The subject of test [3] is phosphorylated c-Src (p-Src). As to the kind of experiment: Immunoblot of phosphorylated c-Src (Tyr416) in asthmatic HASM cells. In kind it is cell-based, human. The protocol:
(§1) Levels of total and phosphorylated c-Src at residue Tyr416 and ERK1/2 proteins, as well as Gβ protein, were detected by Western blot analysis of lysates isolated from normal and asthmatic HASM cells before and at various times after treatment either with 1 μM of anti-Gβγ blocking peptide or gallein, or the c-Src family tyrosine kinase-selective inhibitor, SU6656 (10 μM), or exposure to the pro-asthmatic Th2 cytokine, IL-13 (50 ng/ml), as described. Following protein extraction and addition of gel loading buffer, the cellular extracts were loaded on a 10% SDS-PAGE gel for immunoblotting after transfer to a PVDF membrane. The membranes were then incubated overnight with monoclonal mouse anti-human primary antibodies directed against c-Src, phospho-c-Src^Tyr416, ERK1/2 and phospho-ERK1/2 (Millipore; Billerica, Mass.), and a rabbit anti-human polyclonal antibody directed against the Gβ subunit (Millipore; Billerica, Mass.). Protein levels were detected by ECL after a 1-hr incubation with a 1:2,000 dilution of HRP-conjugated secondary antibody, followed by exposure to autoradiography film. The protein band intensities were quantified by densitometry.
On the technique in general: A western blot detects proteins with antibodies after separation by electrophoresis.

The subject of the next test is free Gβ protein levels. Kind of test: Immunoblot of free Gβ protein in IL-13-treated normal HASM cells. In kind it is cell-based, human. To be noted: IL-13 50 ng/ml, 50 μg/ml printed. The protocol: as §1
The subject of test [4] is co-localization of p-Src with immunoprecipitated Gβ. As to the kind of experiment: Co-IP of p-Src with immunoprecipitated Gβ in IL-13-treated normal HASM cells. To be noted: IL-13 × 60 min. In kind it is cell-based, human. The method, then:
as §1, with “The membranes were then incubated overnight with monoclonal mouse anti-human primary antibodies directed against c-Src, phospho-c-Src^Tyr416, ERK1/2 and phospho-ERK1/2 (Millipore; Billerica, Mass.), and a rabbit anti-human polyclonal antibody directed against the Gβ subunit (Millipore; Billerica, Mass.).” left out
(§2) Normal and asthmatic HASM cells were prepared for co-immunoprecipitation (Co-IP) studies, performed as previously described, under native conditions in order to preserve protein-protein associations. […] The precipitated immunocomplexes were subsequently analyzed by immunoblotting using either anti-Gβ, anti-phospho-c-Src^Tyr416, anti-ERK1/2, or anti-PDE4D rabbit polyclonal antibody, or anti-Rap1GAP rabbit monoclonal IgG antibody (Millipore; Billerica, Mass.).

Test [5] concerns PDE activity evoked in cultured normal HASM cells. To be noted: sensitized under various proasthmatic conditions; [16-18]; cited from earlier work.
Test [6] deals with isolated rabbit ASM tissues. To be noted: sensitized under various proasthmatic conditions; [16-18]; cited from earlier work.
Test [7] relates to co-localization of Gβ with immunoprecipitated Gα. As to the kind of experiment: Western blot / Co-IP of free Gβ and Gα-associated Gβ in normal HASM cells. In kind it is cell-based, human. The settings on record: 1 μM, 30 min. The protocol: as §1, with “The membranes were then incubated overnight with monoclonal mouse anti-human primary antibodies directed against c-Src, phospho-c-Src^Tyr416, ERK1/2 and phospho-ERK1/2 (Millipore; Billerica, Mass.), and a rabbit anti-human polyclonal antibody directed against the Gβ subunit (Millipore; Billerica, Mass.).” left out
as §2

Test [8] has as its system co-localization of ERK1/2 with PDE4D. Kind of test: Co-IP of PDE4D with immunoprecipitated ERK1/2 in asthmatic HASM cells. In kind it is cell-based, human. To be noted: within 30 min. The protocol: Normal and asthmatic HASM cells were prepared for co-immunoprecipitation (Co-IP) studies, performed as previously described, under native conditions in order to preserve protein-protein associations. After indicated treatments, cells were harvested and then exposed to lysis buffer. 1.5 mg of Protein G Dynabeads (Invitrogen; Carlsbad, Calif.) were incubated with 10 μg of anti-Gβ rabbit IgG (Millipore) or anti-Gα (pan) rabbit polyclonal antibody (Millipore; Billerica, Mass.) and incubated for 10 min at room temperature with rotation. Following several washes, the bound bead/antibody complex was added to sample, mixed by pipetting, and incubated for 2 hr at 4° C. with rotation. The captured bead/Protein G/antigen complex was then washed several times and eluted at pH 3.0 with rotation at room temperature. The precipitated immunocomplexes were subsequently analyzed by immunoblotting using either anti-Gβ, anti-phospho-c-Src^Tyr416, anti-ERK1/2, or anti-PDE4D rabbit polyclonal antibody, or anti-Rap1GAP rabbit monoclonal IgG antibody (Millipore; Billerica, Mass.).

Test [9] has as its system phosphorylated ERK1/2 (p-ERK1/2). Kind of test: Immunoblot of phosphorylated ERK1/2 in asthmatic HASM cells. The class given is cell-based, human. The settings on record: 1 μM × 30 min. The method, then:
as §1

Test [10] deals with co-localization of Gβ with immunoprecipitated Gα. Kind of test: Western blot / Co-IP of free Gβ and Gα-associated Gβ in asthmatic HASM cells. The class given is cell-based, human. The settings on record: 1 μM, 30 min. The method, then:
as §1, with “The membranes were then incubated overnight with monoclonal mouse anti-human primary antibodies directed against c-Src, phospho-c-Src^Tyr416, ERK1/2 and phospho-ERK1/2 (Millipore; Billerica, Mass.), and a rabbit anti-human polyclonal antibody directed against the Gβ subunit (Millipore; Billerica, Mass.).” left out
as §2

Another test concerns allergic rabbits. To be noted: previous study (18); cited from earlier work.

“Also recorded” adds a separate entry of the source.

Take `N#CC(=C(/N)Sc1ccccc1N)/C(C#N)=C(\N)Sc1ccccc1N` [U0126]: the “effect on heightened basal PDE activity” value in [1] (5 μM) is “acutely reversed to near normal levels; also recorded: acutely suppressed the elevated PDE activity in asthmatic HASM cells to near normal levels”.
With `O=C(Nc1c(Cl)cncc1Cl)c1ccc(OC(F)F)c(OCC2CC2)c1` [roflumilast], in [2], the “effect on increased PDE activity in cultured asthmatic HASM cells” value was “inhibited”. For the same compound, the “effect on airway hyperresponsiveness following allergen challenge” value with asthmatic individuals ([19,21]) is “decreases airway hyperresponsiveness”. The “effect on lung function” value with asthmatic individuals ([20]) is recorded as “improves lung function”.
Consider `COc1ccc([C@]2(C#N)CC[C@@H](C(=O)O)CC2)cc1OC1CCCC1` [cilomilast], for which the “effect on increased PDE activity in cultured asthmatic HASM cells” value in test [2] is reported as “inhibited”.
For the compound `O=S(=O)(NCCNC/C=C/c1ccc(Br)cc1)c1cccc2cnccc12` [H89], in test [1] (10 μM), the “effect on heightened basal PDE activity” value was “no significant effect”.
In the case of `CN(C)S(=O)(=O)c1ccc2c(c1)/C(=C/c1cc3c([nH]1)CCCC3)C(=O)N2` [SU6656], the “effect on constitutively increased p-Src levels” value in test [3] (SU6656 10 μM) is reported as “suppressive effect”. Also, the “effect on heightened basal PDE activity” value in test [1] (10 μM) was “suppressed to near normal levels; also recorded: acutely reversed to near normal levels”.
“IL-13: pro-asthmatic Th2 cytokine used as stimulus”: in the test on free Gβ protein levels, the “time of peak of evoked increase in free Gβ levels” value fell in the range of 60 to 90 min. Besides, the “effect on co-localization of p-Src with immunoprecipitated Gβ” value in test [4] (relative to unstimulated cells) was “increased co-localization; also recorded: enhanced co-localization”.
In the case of `Oc1ccc(-c2nc(-c3ccncc3)c(-c3ccc(F)cc3)[nH]2)cc1` [SB202190], the “effect on heightened basal PDE activity” value in test [1] (10 μM) was “no significant effect”.
Consider `O=c1cc(N2CCOCC2)oc2c(-c3ccccc3)cccc12` [LY294002], for which, in test [1] (10 μM), the “effect on heightened basal PDE activity” value was “no significant effect”.
As to `COc1ccc(C2CNC(=O)C2)cc1OC1CCCC1` (centres unmarked) [rolipram], the “effect on increased PDE activity evoked in cultured normal HASM cells” value in test [5] is on record as “inhibits”. Further, the “effect on increased PDE activity evoked in isolated rabbit ASM tissues” value in [6] is given as “inhibits”. For the same compound, the “effect on heightened constitutive PDE activity” value in test [1] (10 μM × 1 hr, data not shown) was “completely abrogated”.
Consider `O=C1OC2(c3ccccc31)c1ccc(O)c(O)c1Oc1c2ccc(O)c1O` [gallein], for which the “effect on Gβ distribution” value in test [7] is given as “neither inhibitor had an effect”. For the same compound, the “effect on heightened co-localization of ERK1/2 with PDE4D” value in test [8] is given as “acutely reversed”. Also, the “effect on constitutively increased p-ERK1/2 levels” value in [9] is “acutely suppressed”. For the same compound, in test [3] (1 μM × 30 min), the “effect on constitutively increased p-Src levels” value is recorded as “acutely suppressed”. Moreover, the “effect on Gβ distribution (increased free Gβ, reduced Gα-associated Gβ)” value in test [10] was “acutely reversed”. For the same compound, in test [4], the “effect of pretreatment on IL-13-induced co-localization of p-Src with immunoprecipitated Gβ” value is on record as “abrogated”. Besides, the “time at which PDE activity is suppressed to normal levels” value in test [1] (1 μM) stood at 0.25 h. For the same compound, the “effect on constitutively increased PDE activity in asthmatic HASM cells” value in test [1] (1 μM (maximally effective concentration), acute effect) was “similarly acutely suppressed”. The “duration of suppression of PDE activity” value in test [1] (1 μM, followed up to 24 hr) is reported as “transient in nature”. Also, in the test on allergic rabbits, the “effect of pretreatment on in vivo AHR elicited by allergen challenge” value was “only suppressed AHR” and the “effect of pretreatment on pulmonary inflammation elicited by allergen challenge” value was “no appreciable inhibitory effect”.

Values taken from patent US20150337315A1, “COMPOSITIONS AND METHODS TARGETING SIGNALING BY THE G PROTEIN BETA-GAMMA SUBUNIT FOR THE TREATMENT OF ASTHMA” (priority 2014, published 2015).
